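How tested: cells in 96-well plates exposed to compound for 48 hours at five concentrations. Abbreviation: GI50, concentration required for 50% inhibition of growth. TGI: concentration producing complete growth inhibition.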
What was measured:
Experiment in all cases: inhibition of tumour cell growth, NCI panel, 48 h
NCI-H522 lung = system: NCI-H522 lung
U251 CNS = system: U251 CNS
LOX IMVI melanoma = system: LOX IMVI melanoma
NCI-H226 lung = system: NCI-H226 lung
PC-3 prostate = system: PC-3 prostate
RPMI-8226 leukemia = system: RPMI-8226 leukemia
SNB-19 CNS = system: SNB-19 CNS
UACC-62 melanoma = system: UACC-62 melanoma
T-47D breast = system: T-47D breast

Structure (SMILES) | TGI (NCI-H522 lung) [µM] | TGI (U251 CNS) [µM] | TGI (LOX IMVI melanoma) [µM] | TGI (NCI-H226 lung) [µM] | TGI (PC-3 prostate) [µM] | TGI (RPMI-8226 leukemia) [µM] | TGI (SNB-19 CNS) [µM] | TGI (UACC-62 melanoma) [µM] | TGI (T-47D breast) [µM] | GI50 (SNB-19 CNS) [µM] | GI50 (NCI-H522 lung) [µM] | GI50 (UACC-62 melanoma) [µM] | GI50 (LOX IMVI melanoma) [µM] | GI50 (NCI-H226 lung) [µM] | GI50 (T-47D breast) [µM] | GI50 (PC-3 prostate) [µM]
Nc1c(Cl)ncnc1NCC1(CO)CCC1 | > 100 | > 100 | > 100 | > 100 | > 100 | > 100 | – | – | – | – | – | – | – | – | – | –
c1ccc2c3c(c(N4CCNCC4)nc2c1)CCCC3 | 31.5 | 26.2 | 27.2 | 29.6 | 25.7 | – | 29.2 | 30.4 | 28.5 | – | – | – | – | – | – | –
O=C(O)C(C1NCCS1)N1Cc2ccccc2C1 (stereo not drawn) | – | > 100 | > 100 | > 100 | > 100 | > 100 | > 100 | > 100 | > 100 | – | – | – | – | – | – | –
CN(C)CCNc1ccccn1 | > 100 | > 100 | > 100 | > 100 | > 100 | – | > 100 | > 100 | > 100 | – | – | – | – | – | – | –
COC(=O)/C=C1\C(=O)N(C(C)=O)c2ccccc21 | 15.6 | 37.2 | 18.7 | 27.8 | > 54.9 | 47.6 | > 51.9 | 18.4 | 30.5 | – | – | – | – | – | – | –
COC(=O)c1ccc2c(c1)CC1(C2)Cc2ccc3c(c2C1)CCC3 (stereo not drawn) | 66.8 | > 100 | 60.7 | > 100 | 51.9 | 74.3 | > 100 | 40.6 | 69.1 | – | – | – | – | – | – | –
CCCc1c(OC)c(O)c2c(=O)cc(OC)c3c4c(OC)cc(=O)c5c(O)c(OC)c(CCC)c(c1c23)c54 | 9.53 | 6.41 | 4.91 | 14.8 | 11.9 | > 100 | 16.8 | 59.9 | – | – | – | – | – | – | – | –
CC1CN=C(c2ccc3c(c2)Cc2cc(C4=NCC(C)N4)ccc2-3)N1 (stereo not drawn) | 57.4 | 46.7 | > 100 | > 100 | > 100 | 98.7 | > 100 | 99 | > 100 | – | – | – | – | – | – | –
CN(C)c1ccc(C(=C2C=CC(=[N+](C)C)C=C2)c2c(O)c(S(=O)(=O)[O-])cc3cc(S(=O)(=O)O)ccc23)cc1 | > 100 | > 100 | > 100 | > 100 | > 100 | > 100 | > 100 | > 100 | > 100 | – | – | – | – | – | – | –
CS(=O)(=O)c1nc(-c2cc3c(c(S(C)(=O)=O)n2)CCC3)cc2c1CCC2 | > 100 | > 100 | > 100 | > 100 | > 100 | > 100 | > 100 | > 100 | – | – | – | – | – | – | – | –
O=C(/C=C/c1ccco1)c1ccc(Nc2ccnc3cc(Cl)ccc23)cc1 | > 100 | – | > 100 | > 100 | 41.3 | – | > 100 | > 100 | > 100 | > 100 | > 100 | > 100 | 6.41 | > 100 | 82.2 | 4.99
CC(C)=CCC[C@@H](C)c1c(O)c(O)c(C)c2nc3ccccc3nc12 | – | 22.8 | 16.8 | 5.97 | 11.3 | > 20.2 | 15.5 | 6.72 | 10.6 | – | – | – | – | – | – | –
O=C(/C=C/c1ccccc1O)CC(=O)/C=C/c1ccccc1O | 9.83 | 13 | 6.45 | – | – | 15.5 | 22.9 | 7.58 | > 31.6 | – | – | – | – | – | – | –
C=CCn1c(-c2ccc(N=NNc3ccc(-c4n[nH]c(=S)n4CC=C)cc3)cc2)n[nH]c1=S | > 100 | 17.5 | > 100 | 6.13 | > 100 | 4.63 | > 100 | – | 4.76 | – | – | – | – | – | – | –
NCCCCN(CCCN)C(=O)OCc1ccccc1 | > 100 | > 100 | – | > 100 | > 100 | > 100 | > 100 | > 100 | > 100 | – | – | – | – | – | – | –
C(=C/c1ccc2nc(-c3ccc(/C=C/C=N/NC4=NCCCN4)cc3)cn2c1)/C=N/NC1=NCCCN1 | 34.3 | > 100 | – | 32.6 | 67.4 | > 100 | > 100 | > 100 | > 100 | – | – | – | – | – | – | –
Brc1ccc2c(c1)[C@H]1CCc3c([nH]c4ccccc34)[C@H]1N2 | – | 21.7 | 19.1 | 28.4 | 22.4 | 23.2 | 27 | 24 | 16.8 | – | – | – | – | – | – | –
NC1=CN2c3ccccc3N(CC(=O)N3CCOCC3)C2C=C1 (stereo not drawn) | > 100 | > 100 | > 100 | > 100 | > 100 | – | > 100 | > 100 | > 100 | – | – | – | – | – | – | –
O=C1CCCc2ccc3c(c21)CC1(Cc2cc4c(cc2C1)CCCC4)C3 | 35.5 | 44.4 | 28.5 | 93.3 | – | 35.5 | 91.7 | 49.2 | 23.2 | – | – | – | – | – | – | –
NC(=O)c1ncn(C2CCC(CP(=O)(O)O)C2)c1N (stereo not drawn) | – | > 100 | > 100 | > 100 | > 100 | > 100 | > 100 | > 100 | > 100 | – | – | – | – | – | – | –
CC(=O)Nc1ccc(S(=O)(=O)/N=c2/sc(S(N)(=O)=O)nn2C)cc1 | > 100 | > 100 | – | > 100 | > 100 | > 100 | > 100 | > 100 | – | – | – | – | – | – | – | –
CCNc1nc2ccccc2nc1NCC | > 100 | > 100 | > 100 | > 100 | > 100 | > 100 | > 100 | > 100 | – | – | – | – | – | – | – | –
CO/C=C(/C(=O)OC)c1ccccc1[C@H]1C[C@@H]1c1ccc(OC)cc1 | 25.5 | > 100 | – | > 100 | > 100 | 58.5 | > 100 | 64.7 | 56.7 | – | – | – | – | – | – | –
C=C1CN(C(=O)c2cc3cc(OC)c(OC)c(OC)c3[nH]2)c2cc([N+](=O)[O-])ccc21 | – | > 100 | > 100 | > 100 | > 100 | > 100 | > 100 | > 100 | > 100 | – | – | – | – | – | – | –

— PubChem BioAssay (NCI)
